Counter-ions that a name gives are not always drawn.

The target of the test is T1, human 5-HT4(a) (Homo sapiens, UniProt Q13639).
T1 construct: host or cells: GeneBlAzer HTR4-CRE-bla CHO-K1 cells
T1 sequence (Q13639 1-387 isoform Q13639-2): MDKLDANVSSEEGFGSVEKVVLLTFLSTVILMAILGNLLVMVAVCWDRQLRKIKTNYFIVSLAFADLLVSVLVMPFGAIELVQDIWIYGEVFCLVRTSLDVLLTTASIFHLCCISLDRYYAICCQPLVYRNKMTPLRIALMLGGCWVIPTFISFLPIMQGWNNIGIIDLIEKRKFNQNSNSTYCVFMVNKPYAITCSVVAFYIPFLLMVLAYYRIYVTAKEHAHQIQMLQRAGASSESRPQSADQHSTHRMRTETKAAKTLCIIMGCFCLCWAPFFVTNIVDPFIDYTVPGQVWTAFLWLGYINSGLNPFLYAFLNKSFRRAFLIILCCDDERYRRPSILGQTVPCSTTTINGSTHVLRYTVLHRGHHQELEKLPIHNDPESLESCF
Description: Evaluation of agonistic activity in CHO-K1 cells expressing human 5-HT4(a) (GeneBlAzer HTR4-CRE-bla CHO-K1, beta-lactamase reporter). It counts as cell-based. As to conditions: CHO-K1 cells stably expressing human 5-HT4(a). The protocol: Test Example 1: Evaluation of Agonistic Activity in CHO-K1 Cells Expressing Human 5-HT4(a)
As CHO-K1 cells stably expressing human 5-HT4(a), we used the GeneBlAzer HTR4-CRE-bla CHO-K1 cells (Invitrogen Corp.). The cells were cultured, under the condition of 37[…] and 5% CO2, in a DMEM supplemented with 10% fetal bovine serum (FBS), 25 mM HEPES (pH7.4), 600 μg/ml hygromycin B, 0.1 mM non-essential amino acids, 100 unit/ml penicillin and 100 μg/ml streptomycin. Subcultures were performed three times per one week, each being at less than 80% confluence. At the previous day before treating test compounds, the cells were collected using 0.5% trypsin/EDTA and then diluted with a DMEM supplemented with 1% FBS, 25 mM HEPES, and 0.1 mM non-essential amino acids into 3.125×10^5 cells/ml. 32 μl of the diluted cells were added into 384-well plate (10^4 cells per well) and then incubated overnight. After the overnight culture, 8 μl of the medium having 1% of DMSO was added into the cell-free control well and the non-stimulating control well, respectively. 8 μl of the respective test compound dilutions (which had been prepared by diluting by 100-times with the medium as mentioned in the above) having 1% of DMSO were added to the respective remaining wells. After being cultured in the incubator for 5 hours, the wells of the 384-plate were treated with the substrate solution (8 μl per well) prepared according to the vendor's instruction (i.e., Invitrogen's instruction), and then incubated in the dark room for additional two hours. Agonistic activities on 5-HT4 receptor were evaluated, on the basis of fluorescence values of the cleavage-products by beta-lactamase. After exciting to 410 nm of wavelength using a fluorescence detector (Genios Pro), we measured the fluorescence values at two emission wavelengths (first wavelength: 465 nm, second wavelength: 535 nm). Data were analyzed on the basis of the ratio of fluorescence intensities of each well at the respective wavelengths. Each EC50 value was calculated by non-linear regression analysis using the “GraphPad Prism” program, based on the activities according to 8-different concentrations of the test compounds.
What is called EC50 is the concentration giving half of the maximal effect. `CCCc1cc(N2CC[C@H](NCc3ccc(OC(C)=O)cc3)C2)nc(Nc2cccc(C#N)c2)n1` [Example 109, (S)-4-({1-[2-(3-cyanophenylamino)-6-propylpyrimidin-4-yl]pyrrolidin-3-ylamino}methyl)phenylacetate] yielded an EC50 of 12 pM. The result for `CCCc1cc(N2CC[C@H](NCc3ccc(N(C)C)cc3)C2)nc(Nc2cccc(C#N)c2)n1` [Example 110, (S)-3-(4-{3-[4-(dimethylamino)benzylamino]pyrrolidin-1-yl}-6-propylpyrimidin-2-ylamino)benzonitrile] reads 18 pM; that for `CCCc1cc(N2CC[C@H](NCc3ccc[nH]3)C2)nc(Nc2cccc(C#N)c2)n1` [Example 111, (S)-3-(4-{3-[(1H-pyrrol-2-yl)methylamino]pyrrolidin-1-yl}-6-propylpyrimidin-2-ylamino)benzonitrile], 8 pM; that for `CCCc1cc(N2CC[C@H](NCc3cccs3)C2)nc(Nc2cccc(C#N)c2)n1` [Example 112, (S)-3-{4-propyl-6-[3-(thiophen-2-ylmethylamino)pyrrolidin-1-yl]pyrimidin-2-ylamino}benzonitrile], 45 pM. On to `CCCc1cc(N2CC[C@H](NCc3ccsc3)C2)nc(Nc2cccc(C#N)c2)n1` [Example 113, (S)-3-{4-propyl-6-[3-(thiophen-3-ylmethylamino)pyrrolidin-1-yl]pyrimidin-2-ylamino}benzonitrile], for which the EC50 was 16 pM. For the compound `CCCCN[C@H]1CCN(c2cc(CCC)nc(Nc3cccc(C#N)c3)n2)C1` [Example 116, (S)-3-{4-[3-(butylamino)pyrrolidin-1-yl]-6-propylpyrimidin-2-ylamino}benzonitrile], the EC50 came to 3.5 pM.

As to `CCCc1cc(N2CC[C@H](NCCCSC)C2)nc(Nc2cccc(C#N)c2)n1` [Example 117, (S)-3-(4-{3-[3-(methylthio)propylamino]pyrrolidin-1-yl}-6-propylpyrimidin-2-ylamino)benzonitrile], it took 14 pM to reach a half-maximal effect (EC50). In turn, `CCCc1cc(N2CC[C@H](NC)C2)nc(Nc2ccc3cc[nH]c3c2)n1` [Example 121, (S)-N-{4-[3-(methylamino)pyrrolidin-1-yl]-6-propylpyrimidin-2-yl}-1H-indol-6-amine] yielded an EC50 of 5 pM. As for `CCCc1cc(N2CC[C@H](NC)C2)nc(Nc2ccc(N)c(C(F)(F)F)c2)n1` [Example 123, (S)-N^1-{4-[3-(methylamino)pyrrolidin-1-yl]-6-propylpyrimidin-2-yl}-3-(trifluoromethyl)benzene-1,4-diamine dihydrochloride], the figure is 1.9 pM; as for `CCCc1cc(N2CC[C@H](NS(C)(=O)=O)C2)nc(Nc2cccc(C#N)c2)n1` [Example 125, (S)-N-{1-[2-(3-cyanophenylamino)-6-propylpyrimidin-4-yl]pyrrolidin-3-yl}methanesulfonamide], 159 pM. `CCCc1cc(N2CC[C@H](NC(C)CC)C2)nc(Nc2cccc(C#N)c2)n1` (stereo partly drawn) [Example 127, 3-{4-[(3S)-3-(sec-butylamino)pyrrolidin-1-yl]-6-propylpyrimidin-2-ylamino}benzonitrile] came in with an EC50 of 6.2 pM.

The compound `CCCc1cc(N2CC[C@H](NC(CC)CC)C2)nc(Nc2cccc(C#N)c2)n1` [Example 128, (S)-3-{4-[3-(pentan-3-ylamino)pyrrolidin-1-yl]-6-propylpyrimidin-2-ylamino}benzonitrile] showed a concentration giving a half-maximal response (EC50) of 39 pM. `CCCc1cc(N2CC[C@H](NC(CC(C)C)CC(C)C)C2)nc(Nc2cccc(C#N)c2)n1` [Example 129, (S)-3-{4-[3-(2,6-dimethylheptan-4-ylamino)pyrrolidin-1-yl]-6-propylpyrimidin-2-ylamino}benzonitrile] displayed an EC50 of 323 pM. Take `CCCc1cc(N2CC[C@H](NC(C)C(C)(C)O)C2)nc(Nc2cccc(C#N)c2)n1` (stereo partly drawn) [Example 131, (S)-3-{4-[3-(3-hydroxy-3-methylbutan-2-ylamino)pyrrolidin-1-yl]-6-propylpyrimidin-2-ylamino}benzonitrile]: the response was half-maximal at 91 pM (EC50). The result for `CCCCC(C)N[C@H]1CCN(c2cc(CCC)nc(Nc3cccc(C#N)c3)n2)C1` (stereo partly drawn) [Example 133, (S)-3-{4-[3-(n-hexan-2-ylamino)pyrrolidin-1-yl]-6-propylpyrimidin-2-ylamino}benzonitrile] reads 39 pM. With `CCCc1cc(N2CC[C@H](NC(C)CCC(C)C)C2)nc(Nc2cccc(C#N)c2)n1` (stereo partly drawn) [Example 134, (S)-3-{4-[3-(5-methylhexan-2-ylamino)pyrrolidin-1-yl]-6-propylpyrimidin-2-ylamino}benzonitrile], the EC50 stood at 214 pM.

Compound `CCCc1cc(N2CC[C@H](NC3CCCCC3)C2)nc(Nc2cccc(C#N)c2)n1` [Example 135, (S)-3-{4-[3-(cyclohexylamino)pyrrolidin-1-yl]-6-propylpyrimidin-2-ylamino}benzonitrile] had an EC50 of 11 pM. Regarding `CCCc1cc(N2CC[C@H](NCCNC(=O)OC(C)(C)C)C2)nc(Nc2cccc(C#N)c2)n1` [Example 136, (S)-tert-butyl 2-{1-[2-(3-cyanophenylamino)-6-propylpyrimidin-4-yl]pyrrolidin-3-ylamino}ethylcarbamate], a half-maximal effect (EC50) was put at 45 pM. As to `CCCc1cc(N2CC[C@H](NC3CCN(Cc4ccccc4)CC3)C2)nc(Nc2cccc(C#N)c2)n1` [Example 137, (S)-3-{4-[3-(1-benzylpiperidin-4-ylamino)pyrrolidin-1-yl]-6-propylpyrimidin-2-ylamino}benzonitrile], a half-maximal effect (EC50) was put at 72 pM. Regarding `CCCc1cc(N2CC[C@H](NC(C)C)C2)nc(Nc2cccc(C#N)c2)n1` [Example 138, (S)-3-{4-[3-(isopropylamino)pyrrolidin-1-yl]-6-propylpyrimidin-2-ylamino}benzonitrile], the EC50 came to 12 pM. Take `CCCc1cc(N2CC[C@H](NC3CCN(C(=O)c4ccccc4)CC3)C2)nc(Nc2cccc(C#N)c2)n1` [Example 139, (S)-3-{4-[3-(1-benzoylpiperidin-4-ylamino)pyrrolidin-1-yl]-6-propylpyrimidin-2-ylamino}benzonitrile]: the midpoint of the response, the EC50, lay at 34 pM.

In turn, `CCCc1cc(N2CC[C@H](NC3CCN(C(C)=O)CC3)C2)nc(Nc2cccc(C#N)c2)n1` [Example 140, (S)-3-{4-[3-(1-piperidin-4-acetylpiperidin-4-ylamino)pyrrolidin-1-yl]-6-propylpyrimidin-2-ylamino}benzonitrile] yielded an EC50 of 28 pM.

Take `CCCc1cc(N2CC[C@H](NC3CCCCCCC3)C2)nc(Nc2cccc(C#N)c2)n1` [Example 141, (S)-3-{4-[3-(cyclooctylamino)pyrrolidin-1-yl]-6-propylpyrimidin-2-ylamino}benzonitrile]: it took 85 pM to reach a half-maximal effect (EC50). Compound `CCCc1cc(N2CC[C@H](NC3CCC3)C2)nc(Nc2cccc(C#N)c2)n1` [Example 142, (S)-3-{4-[3-(cyclobutylamino)pyrrolidin-1-yl]-6-propylpyrimidin-2-ylamino}benzonitrile] yielded an EC50 of 10 pM. The result for `CCCc1cc(N2CC[C@H](NC3CCCC3)C2)nc(Nc2cccc(C#N)c2)n1` [Example 143] reads 6.6 pM; that for `CCCc1cc(N2CC[C@H](NC3CN(C(=O)OC(C)(C)C)C3)C2)nc(Nc2cccc(C#N)c2)n1` [Example 144, (S)-tert-butyl 3-{1-[2-(3-cyanophenylamino)-6-propylpyrimidin-4-yl]pyrrolidin-3-ylamino}azetidine-1-carboxylate], 36 pM. In turn, `CCCc1cc(N2CC[C@H](NCCOCc3ccccc3)C2)nc(Nc2cccc(C#N)c2)n1` [Example 145, (S)-3-(4-{3-[2-(benzyloxy)ethylamino]pyrrolidin-1-yl}-6-propylpyrimidin-2-ylamino)benzonitrile] yielded an EC50 of 46 pM. The EC50 values of the last two compounds are within 1.5-fold of each other. With `CCCc1cc(N2CC[C@H](NC(=O)CC)C2)nc(Nc2cccc(C#N)c2)n1` [Example 146, (S)-N-{1-[2-(3-cyanophenylamino)-6-propylpyrimidin-4-yl]pyrrolidin-3-yl}propionamide], the EC50 turned out to be 84 pM.

In turn, `C/C=C(\C)C(=O)N[C@H]1CCN(c2cc(CCC)nc(Nc3cccc(C#N)c3)n2)C1` [Example 149, (S,E)-N-{1-[2-(3-cyanophenylamino)-6-propylpyrimidin-4-yl]pyrrolidin-3-yl}-2-methylbut-2-enamide] showed a half-maximal effective concentration (EC50) of 277 pM. Consider `CCCCCC(=O)N[C@H]1CCN(c2cc(CCC)nc(Nc3cccc(C#N)c3)n2)C1` [Example 150, (S)-N-{1-[2-(3-cyanophenylamino)-6-propylpyrimidin-4-yl]pyrrolidin-3-yl}hexanamide], for which the response was half-maximal at 410 pM (EC50). For the compound `CCCc1cc(N2CC[C@H](NC(=O)CCc3ccccc3)C2)nc(Nc2cccc(C#N)c2)n1` [Example 151, (S)-N-{1-[2-(3-cyanophenylamino)-6-propylpyrimidin-4-yl]pyrrolidin-3-yl}-3-phenylpropanamide], the EC50 is 334 pM. The EC50 values of the last two compounds are within 1.5-fold of each other.

Source of the values: patent publication US9890138B2, “Diaminopyrimidine derivatives and processes for the preparation thereof” (YUHAN CORPORATION, priority 2011, dated 2018).
